Assay results as given in US11566007B2, “Ras inhibitors” (Revolution Medicines, Inc., priority 2019, dated 2023).
Read-outs that look alike come from different tables or passages of the source.

Tests used:
K-Ras G13C = K-Ras G13C (Homo sapiens (Human), UniProt P01116+P62937, G13C); assay: Ras-Raf (BRAF RBD) disruption / FRET / MOA assay, KRAS G13C; assay type: biochemical; conditions: KRAS G13C; Ras-Raf disruption/FRET/MOA assay; read-out: IC50* KRAS G13C FRET data
In short: (§1)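 Compounds, top final concentration 30 μM in 10-point 3-fold series, incubated 3 hours at 25° C with nucleotide-loaded Ras, cyclophilin A and BRAF RBD.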

KRAS WT = KRAS WT (Homo sapiens (Human), UniProt P01116+P62937); assay: Ras-Raf (BRAF RBD) disruption / FRET / MOA assay, KRAS WT; assay type: biochemical; conditions: read-out: IC50* KRAS WT FRET data
KRAS WT, sequence (P01116-2 other isoform, or with tags, fused parts or gaps): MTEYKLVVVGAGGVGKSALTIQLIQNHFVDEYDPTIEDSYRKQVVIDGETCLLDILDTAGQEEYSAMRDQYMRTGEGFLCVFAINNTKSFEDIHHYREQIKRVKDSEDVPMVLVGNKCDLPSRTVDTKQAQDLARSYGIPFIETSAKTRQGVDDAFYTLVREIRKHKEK
KRAS WT, sequence (P62937 whole entry): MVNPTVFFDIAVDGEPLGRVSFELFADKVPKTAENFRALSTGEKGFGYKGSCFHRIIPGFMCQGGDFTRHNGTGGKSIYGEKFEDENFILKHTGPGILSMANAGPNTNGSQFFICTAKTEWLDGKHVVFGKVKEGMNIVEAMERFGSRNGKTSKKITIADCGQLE
In short: as §1

KRAS G12D = KRAS G12D (Homo sapiens (Human), UniProt P01116+P62937, G12D); assay: Ras-Raf (BRAF RBD) disruption / FRET / MOA assay, KRAS G12D; assay type: biochemical; conditions: Ras-Raf disruption/FRET/MOA assay; class symbols; read-out: KRAS G12D FRET data IC50
KRAS G12D, sequence (P01116-2 other isoform, or with tags, fused parts or gaps G12D): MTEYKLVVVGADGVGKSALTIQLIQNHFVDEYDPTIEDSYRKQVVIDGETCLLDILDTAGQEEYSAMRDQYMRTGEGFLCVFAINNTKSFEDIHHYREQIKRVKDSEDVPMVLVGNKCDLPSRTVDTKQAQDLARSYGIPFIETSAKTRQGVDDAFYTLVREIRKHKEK
KRAS G12D, sequence (P62937 whole entry): as the sequence (P62937 whole entry) above
In short: as §1

KRAS G13D = KRAS G13D (Homo sapiens (Human), UniProt P01116+P62937, G13D); assay: Ras-Raf (BRAF RBD) disruption / FRET / MOA assay, KRAS G13D; assay type: biochemical; conditions: read-out: IC50* KRAS G13D FRET data
KRAS G13D, sequence (P01116-2 other isoform, or with tags, fused parts or gaps G13D): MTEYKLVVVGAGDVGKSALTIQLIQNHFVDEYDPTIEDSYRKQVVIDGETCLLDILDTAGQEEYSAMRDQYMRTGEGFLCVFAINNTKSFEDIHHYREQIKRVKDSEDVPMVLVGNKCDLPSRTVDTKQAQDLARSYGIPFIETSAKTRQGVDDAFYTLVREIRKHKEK
KRAS G13D, sequence (P62937 whole entry): as the sequence (P62937 whole entry) above
In short: as §1

KRAS G12S = KRAS G12S (Homo sapiens (Human), UniProt P01116+P62937, G12S); assay: Ras-Raf (BRAF RBD) disruption / FRET / MOA assay, KRAS G12S; assay type: biochemical; conditions: Ras-Raf disruption/FRET/MOA assay; class symbols; read-out: KRAS G12S FRET data IC50
KRAS G12S, sequence (P01116-2 other isoform, or with tags, fused parts or gaps G12S): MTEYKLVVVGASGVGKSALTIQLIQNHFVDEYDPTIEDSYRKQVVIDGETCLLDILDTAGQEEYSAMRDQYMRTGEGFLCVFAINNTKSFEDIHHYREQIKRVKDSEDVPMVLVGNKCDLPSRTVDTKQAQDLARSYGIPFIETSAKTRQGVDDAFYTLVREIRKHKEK
KRAS G12S, sequence (P62937 whole entry): as the sequence (P62937 whole entry) above
In short: as §1

KRAS G12V = KRAS G12V (Homo sapiens (Human), UniProt P01116+P62937, G12V); assay: Ras-Raf (BRAF RBD) disruption / FRET / MOA assay, KRAS G12V; assay type: biochemical; conditions: read-out: IC50* KRAS G12V FRET data
KRAS G12V, sequence (P01116-2 other isoform, or with tags, fused parts or gaps G12V): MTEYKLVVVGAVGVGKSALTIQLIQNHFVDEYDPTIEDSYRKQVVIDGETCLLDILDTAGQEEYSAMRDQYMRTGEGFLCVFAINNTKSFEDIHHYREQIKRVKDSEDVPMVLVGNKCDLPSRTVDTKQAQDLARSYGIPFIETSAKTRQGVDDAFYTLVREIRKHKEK
KRAS G12V, sequence (P62937 whole entry): as the sequence (P62937 whole entry) above
In short: as §1

NRAS Q61R = NRAS Q61R (Homo sapiens (Human), UniProt P01111+P62937, Q61R); assay: Ras-Raf (BRAF RBD) disruption / FRET / MOA assay, NRAS Q61R; assay type: biochemical; conditions: NRAS Q61R; Ras-Raf disruption/FRET/MOA assay; read-out: IC50* NRAS Q61R FRET data
NRAS Q61R, sequence (P01111 whole entry Q61R): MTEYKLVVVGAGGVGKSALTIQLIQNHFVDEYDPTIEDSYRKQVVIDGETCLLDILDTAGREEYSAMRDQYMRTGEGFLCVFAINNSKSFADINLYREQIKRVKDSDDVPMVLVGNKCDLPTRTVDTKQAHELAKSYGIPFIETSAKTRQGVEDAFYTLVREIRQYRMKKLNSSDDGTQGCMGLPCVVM
NRAS Q61R, sequence (P62937 whole entry): as the sequence (P62937 whole entry) above
In short: (§2)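 TR-FRET disruption of nucleotide-loaded Ras binding to BRAF RBD via compound-driven ternary complex with cyclophilin A. Compound as 10-point 3-fold series from 30 μM final, 3 h at 25° C, then anti-His Eu-W1024 (10 nM) and anti-GST allophycocyanin (50 nM) for 1.5 h. IC50 from decreased FRET ratio versus DMSO.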

NCI-H358 (K-Ras G12C) = assay: CellTiter-Glo cell viability assay, NCI-H358; assay type: cell-based, human; conditions: Homo sapiens, NCI-H358, 120 h, class symbols
In short: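 Compounds dispensed directly onto seeded K-Ras mutant cells; plates read on day 5 after ~30 min equilibration to room temperature, by CellTiter-Glo luminescence. Signal normalized as (sample/mean DMSO)×100, then fitted to a four-parameter logistic curve.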

NRAS WT = NRAS WT (Homo sapiens (Human), UniProt P01111+P62937); assay: Ras-Raf (BRAF RBD) disruption / FRET / MOA assay, NRAS WT; assay type: biochemical; conditions: read-out: IC50* NRAS WT FRET data
NRAS WT, sequence (P01111 whole entry): as the sequence (P01111 whole entry Q61R) above, with R61Q counted along it
NRAS WT, sequence (P62937 whole entry): as the sequence (P62937 whole entry) above
In short: as §2

NRAS Q61K = NRAS Q61K (Homo sapiens (Human), UniProt P01111+P62937, Q61K); assay: Ras-Raf (BRAF RBD) disruption / FRET / MOA assay, NRAS Q61K; assay type: biochemical; conditions: NRAS Q61K; Ras-Raf disruption/FRET/MOA assay; read-out: IC50* NRAS Q61K FRET data
NRAS Q61K, sequence (P01111 whole entry Q61K): as the sequence (P01111 whole entry Q61R) above, with R61K counted along it
NRAS Q61K, sequence (P62937 whole entry): as the sequence (P62937 whole entry) above
In short: as §2

[1] = NCI-H358, 5-day treatment, read-out: Additional H358 Cell Viability assay data (K-Ras G12C, IC50)

K-Ras G13C, sequence (P01116-2 other isoform, or with tags, fused parts or gaps G13C): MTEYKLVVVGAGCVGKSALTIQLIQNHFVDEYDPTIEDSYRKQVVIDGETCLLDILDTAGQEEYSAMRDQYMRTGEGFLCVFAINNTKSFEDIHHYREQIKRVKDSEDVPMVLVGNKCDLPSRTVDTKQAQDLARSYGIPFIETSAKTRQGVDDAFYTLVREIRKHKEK
K-Ras G13C, sequence (P62937 whole entry): as the sequence (P62937 whole entry) above

SMILES	IC50 (K-Ras G13C) [nM]	IC50 (KRAS WT) [nM]	IC50 (KRAS G12D) [nM]	IC50 (KRAS G13D) [nM]	IC50 (KRAS G12S) [nM]	IC50 (KRAS G12V) [nM]	IC50 (NRAS Q61R) [nM]	IC50 (NCI-H358 (K-Ras G12C); [1]) [µM]	IC50 (NRAS WT) [nM]	IC50 (NRAS Q61K) [nM]	IC50 (NCI-H358 (K-Ras G12C); read-out: Additional H358 Cell Viability assay data (K-Ras G12C, IC50, uM), NCI-H358, 5-day treatment) [µM]
C=CC(=O)N(C)CCN1CCN(C(=O)N(C)[C@H](C(=O)N[C@H]2Cc3cccc(c3)-c3ccc4c(c3)c(c(-c3cccnc3[C@H](C)OC)n4CC)CC(C)(C)COC(=O)[C@@H]3CCCN(N3)C2=O)C(C)C)C[C@H]1C (atropisomer, axis not shown) [Example A553]	10 to 100	100 to 1000	1000 to 10000	1000 to 10000	1000 to 10000	1000 to 10000	1000 to 10000	0.1 to 1	1000 to 10000	1000 to 10000	
C=CC(=O)N1CCC2(CCN(C(=O)N(C)[C@H](C(=O)N[C@H]3Cc4cccc(c4)-c4ccc5c(c4)c(c(-c4cccnc4[C@H](C)OC)n5CC)CC(C)(C)COC(=O)[C@@H]4CCCN(N4)C3=O)C(C)C)CC2)C1 (atropisomer, axis not shown) [Example A554]	10 to 100	100 to 1000	1000 to 10000	1000 to 10000	100 to 1000	100 to 1000	100 to 1000	0.1 to 1	100 to 1000	100 to 1000	
C=CC(=O)N1CC[C@]2(C1)OCN([C@H](C(=O)N[C@H]1Cc3cc(cc(C(F)F)c3)-c3ccc4c(c3)c(c(-c3cccnc3[C@H](C)OC)n4CC)CC(C)(C)COC(=O)[C@@H]3CCCN(N3)C1=O)C(C)C)C2=O (atropisomer, axis not shown) [Example A557]	100 to 1000	100 to 1000	1000 to 10000	1000 to 10000	100 to 1000	1000 to 10000	1000 to 10000	0.1 to 1	100 to 1000	1000 to 10000	
CCn1c(-c2cccnc2[C@H](C)OC)c2c3cc(ccc31)-c1cccc(c1)C[C@H](NC(=O)[C@H](C(C)C)N1CC[C@]3(CCN(C(=O)C#C[C@H]4COCCN4C4COC4)C3)C1=O)C(=O)N1CCC[C@H](N1)C(=O)OCC(C)(C)C2 (atropisomer, axis not shown) [Example A568]	1000 to 10000	> 10000	> 10000	> 10000	1000 to 10000	> 10000	> 10000	0.01 to 0.1	> 10000	> 10000	
CCn1c(-c2cccnc2[C@H](C)OC)c2c3cc(ccc31)-c1cccc(c1)C[C@H](NC(=O)[C@H](C(C)C)N1CC[C@]3(CCN(C(=O)C#C[C@@H]4COCCN4C)C3)C1=O)C(=O)N1CCC[C@H](N1)C(=O)OCC(C)(C)C2 (atropisomer, axis not shown) [Example A569]	1000 to 10000	10 to 100	> 10000	> 10000	1000 to 10000	> 10000	> 10000		> 10000	> 10000	0.01 to 0.1
C=CC(=O)N(C)CCN1CCN(C(=O)N(C)[C@H](C(=O)N[C@H]2Cc3cccc(c3)-c3ccc4c(c3)c(c(-c3cccnc3[C@H](C)OC)n4CC)CC(C)(C)COC(=O)[C@@H]3CCCN(N3)C2=O)C(C)C)C[C@@H]1C (atropisomer, axis not shown) [Example A570]	10 to 100	100 to 1000	1000 to 10000	1000 to 10000	100 to 1000	100 to 1000	100 to 1000	0.1 to 1	100 to 1000	100 to 1000	
C=CC(=O)N1CCO[C@H]2CN(C(=O)N(C)[C@H](C(=O)N[C@H]3Cc4nc(n(C)n4)-c4ccc5c(c4)c(c(-c4cccnc4[C@H](C)OC)n5CC(F)(F)F)CC(C)(C)COC(=O)[C@@H]4CCCN(N4)C3=O)C(C)C)C[C@H]21 (atropisomer, axis not shown) [Example A575]	10 to 100	100 to 1000	1000 to 10000	1000 to 10000	100 to 1000	1000 to 10000	100 to 1000	0.01 to 0.1	100 to 1000	100 to 1000	
C=CC(=O)N1CCO[C@]2(CCN(C(=O)N(C)[C@H](C(=O)N[C@H]3Cc4nc(cs4)-c4ccc5c(c4)c(c(-c4cccnc4[C@H](C)OC)n5CC(F)(F)F)CC(C)(C)COC(=O)[C@@H]4CCCN(N4)C3=O)C(C)C)C2)C1 (atropisomer, axis not shown) [Example A593]	100 to 1000	1000 to 10000	1000 to 10000	1000 to 10000	1000 to 10000	1000 to 10000	100 to 1000	0.1 to 1	100 to 1000	100 to 1000	
CCn1c(-c2cccnc2[C@H](C)OC)c2c3cc(ccc31)-c1csc(n1)C[C@H](NC(=O)[C@H](C(C)C)N(C)C(=O)N1CCC13CN(C(=O)/C=C/CN(C)C)C3)C(=O)N1CCC[C@H](N1)C(=O)OCC(C)(C)C2 (atropisomer, axis not shown) [Example A598]	100 to 1000	10 to 100	100 to 1000	100 to 1000	10 to 100	100 to 1000	10 to 100	0.01 to 0.1	10 to 100	10 to 100	
C=CC(=O)N1CCOC2(CCN(C(=O)N(C)[C@H](C(=O)N[C@H]3Cc4cccc(n4)-c4ccc5c(c4)c(c(-c4cccnc4[C@H](C)OC)n5CC(F)(F)F)CC(C)(C)COC(=O)[C@@H]4CCCN(N4)C3=O)C(C)C)CC2)C1 (atropisomer, axis not shown) [Example A607, 4-acryloyl-N-((2S)-1-(((6^3S,4S)-1^2-(2-((S)-1-methoxyethyl)pyridin-3-yl)-10,10-dimethyl-5,7-dioxo-1^1-(2,2,2-trifluoroethyl)-6^1,6^2,6^3,6^4,6^5,6^6-hexahydro-1^1H-8-oxa-1(5,3)-indola-6(1,3)-pyridazina-2(2,6)-pyridinacycloundecaphane-4-yl)amino)-3-methyl-1-oxobutan-2-yl)-N-methyl-1-oxa-4,9-diazaspiro[5.5]undecane-9-carboxamide]	10 to 100	100 to 1000	1000 to 10000	1000 to 10000	1000 to 10000	1000 to 10000	100 to 1000	0.01 to 0.1	100 to 1000	100 to 1000	
